One block for each molecule: values may come before it.
Experiments:
[1] = solubility of the drug in the acrylic-based polymer dermal composition

solubility of clonidine in the acrylic ([1]; in hydroxy functional acrylic compared with carboxy functional acrylic): lower solubility
clonidine flux (increasing amount of hydroxy functional acrylic (DT 87-2287) versus carboxy functional DT 87-2852, FIG. 3, Examples 9-11 and Comparative Example 3 plotted): increases the flux of the clonidine
SMILES: Clc1cccc(Cl)c1N=C1NCCN1 [clonidine]

SMILES: O=C(CCCN1CCC(O)(c2ccc(Cl)cc2)CC1)c1ccc(F)cc1 [haloperidol]
solubility of the haloperidol in the dermal composition ([1]; increasing amount of non-functional acrylic in the dermal composition): reduces the solubility of the haloperidol
cumulative haloperidol flux (increasing amount of non-functional acrylic (HRJ 4483) versus carboxy functional DT 87-2196, FIG. 1, Examples 2 and 4 and Comparative Example 1 plotted): flux of the haloperidol across the skin increases

SMILES: CN1CCCC1c1cccnc1 (centres unmarked) [nicotine]
nicotine flux (increasing amount of non-functional acrylic (HRJ 4483) versus carboxy functional DT 87-2852, FIG. 2, Examples 5-7 and Comparative Example 2 plotted): increasing flux
